Test results reported in patent publication US9655887B2, “Pharmaceutical composition and the use thereof, and application regime of said pharmaceutical composition for on-demand contraception” (BAYER PHARMA AKTIENGESELLSCHAFT, priority 2013, dated 2017).
pIC50: −log10 of the molar value.

Biological target: EP2 subtype of the human PGE2 receptor (hEP2 receptor) (Homo sapiens, UniProt P43116)
Test: cAMP antagonism test, human prostaglandin E2 (subtype EP2) receptor signal
Assay type: cell-based
Procedure, shortened: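 Cells (625000 cells/ml, mixed with cAMP-d2) were preincubated 20 min at RT with compound ([…]). They were then stimulated 60 min at RT with a 3× PGE2 solution (1.5 nM) in PBS-IBMX and lysed for 20 min. cAMP was read by HTRF as the 665/620 nm ratio ×10000, with antagonism seen as a rise in FRET signal.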

EP2 subtype of the human PGE2 receptor (hEP2 receptor), sequence (P43116 whole entry): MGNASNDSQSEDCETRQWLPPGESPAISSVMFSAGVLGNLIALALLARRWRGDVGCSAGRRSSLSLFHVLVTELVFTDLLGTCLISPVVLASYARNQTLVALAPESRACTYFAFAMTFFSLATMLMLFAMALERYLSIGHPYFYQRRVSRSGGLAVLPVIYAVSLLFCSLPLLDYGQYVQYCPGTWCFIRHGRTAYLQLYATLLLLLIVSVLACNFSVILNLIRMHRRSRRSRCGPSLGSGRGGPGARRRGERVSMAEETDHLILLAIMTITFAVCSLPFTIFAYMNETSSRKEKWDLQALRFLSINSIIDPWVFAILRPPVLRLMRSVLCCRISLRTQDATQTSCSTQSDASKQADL

Row | Structure (SMILES) | pIC50
1 | COCCNC(=O)c1ccc2nn(CC3CN(C(=O)c4ccc(Oc5ccc(F)cc5)cc4)C3)cc2c1C [Example E109, 2-({1-[4-(4-fluorophenoxy)benzoyl]azetidin-3-yl}methyl)-N-(2-methoxyethyl)-4-methyl-2H-indazole-5-carboxamide] | < 7.30
2 | Cc1c(C(=O)NCCOCC(F)(F)F)ccc2nn(CC3CN(C(=O)c4ccc(Cl)cc4)C3)cc12 [Example E112, 2-{[1-(4-chlorobenzoyl)azetidin-3-yl]methyl}-4-methyl-N-[2-(2,2,2-trifluoroethoxy)-ethyl]-2H-indazole-5-carboxamide] | < 7.30
3 | Cc1c(C(=O)NCCOCC(F)(F)F)ccc2nn(CC3CN(C(=O)c4ccc(Oc5ccc(C(F)(F)F)cc5)cc4)C3)cc12 [Example E113, 4-methyl-N-[2-(2,2,2-trifluoroethoxy)ethyl]-2-[(1-{4-[4-(trifluoromethyl)phenoxy]-benzoyl}azetidin-3-yl)methyl]-2H-indazole-5-carboxamide] | < 7.30
4 | Cc1c(C(=O)NCC(F)(F)F)ccc2nn(CC3CN(C(=O)c4ccc(Oc5ccc(C(F)(F)F)cc5)cc4)C3)cc12 [Example E114, 4-methyl-N-(2,2,2-trifluoroethyl)-2-[(1-{4-[4-(trifluoromethyl)phenoxy]benzoyl}-azetidin-3-yl)methyl]-2H-indazole-5-carboxamide] | < 7.30
5 | Cc1c(C(=O)NCC(F)(F)F)ccc2nn(CC3CN(C(=O)c4ccc(Oc5ccc(Cl)cc5)cc4)C3)cc12 [Example E115, 2-({1-[4-(4-chlorophenoxy)benzoyl]azetidin-3-yl}methyl)-4-methyl-N-(2,2,2-trifluoro-ethyl)-2H-indazole-5-carboxamide] | < 7.30
6 | COCCNC(=O)c1ccc2nn(CC3CN(C(=O)c4ccc(Oc5ccc(Cl)cc5)cc4)C3)cc2c1C [Example E116, 2-({1-[4-(4-chlorophenoxy)benzoyl]azetidin-3-yl}methyl)-N-(2-methoxyethyl)-4-methyl-2H-indazole-5-carboxamide] | < 7.30
7 | COCCNC(=O)c1ccc2nn(CC3CN(C(=O)c4ccc(Oc5ccc(C(F)(F)F)cn5)cc4)C3)cc2c1C [Example E117, N-(2-methoxyethyl)-4-methyl-2-{[1-(4-{[5-(trifluoromethyl)pyridin-2-yl]oxy}benzoyl)-azetidin-3-yl]methyl}-2H-indazole-5-carboxamide] | < 7.30
8 | Cc1c(C(=O)NCC(F)(F)F)ccc2nn(CC3CCN(C(=O)c4ccc(SC(F)(F)F)cc4)CC3)cc12 [Example E125, 4-methyl-N-(2,2,2-trifluoroethyl)-2-[(1-{4-[(trifluoromethyl)sulphanyl]benzoyl}-piperidin-4-yl)methyl]-2H-indazole-5-carboxamide] | < 7.30
9 | Cc1c(C(=O)NCC(F)(F)F)ccc2nn(CC3CCN(C(=O)c4ccc(Oc5ccc(C(F)(F)F)cn5)cc4)CC3)cc12 [Example E127, 4-methyl-N-(2,2,2-trifluoroethyl)-2-{[1-(4-{[5-(trifluoromethyl)pyridin-2-yl]oxy}-benzoyl)piperidin-4-yl]methyl}-2H-indazole-5-carboxamide] | < 7.30
10 | Cc1c(C(=O)NCC(F)(F)F)ccc2nn(CC3CCN(C(=O)c4ccc(Oc5ccc(C(F)(F)F)nc5)cc4)CC3)cc12 [Example E128, 4-methyl-N-(2,2,2-trifluoroethyl)-2-{[1-(4-{[6-(trifluoromethyl)pyridin-3-yl]oxy}-benzoyl)piperidin-4-yl]methyl}-2H-indazole-5-carboxamide] | < 7.30
11 | Cc1c(C(=O)NCC(F)(F)F)ccc2nn(CC3CCN(C(=O)c4ccc(Oc5cccc(F)c5)cc4)CC3)cc12 [Example E131, 2-({1-[4-(3-fluorophenoxy)benzoyl]piperidin-4-yl}methyl)-4-methyl-N-(2,2,2-trifluoro-ethyl)-2H-indazole-5-carboxamide] | < 7.30
12 | Cc1c(C(=O)NCC(F)(F)F)ccc2nn(CC3CCN(C(=O)c4ccc(Oc5cccc(C(F)(F)F)c5)cc4)CC3)cc12 [Example E132, 4-methyl-N-(2,2,2-trifluoroethyl)-2-[(1-{4-[3-(trifluoromethyl)phenoxy]benzoyl}-piperidin-4-yl)methyl]-2H-indazole-5-carboxamide] | < 7.30
13 | Cc1c(C(=O)NCC(F)(F)F)ccc2nn(CC3CCN(C(=O)c4ccc(Oc5ccc(F)c(F)c5)cc4)CC3)cc12 [Example E137, 2-({1-[4-(3,4-difluorophenoxy)benzoyl]piperidin-4-yl}methyl)-4-methyl-N-(2,2,2-trifluoroethyl)-2H-indazole-5-carboxamide] | < 7.30
14 | Cc1c(C(=O)NCC(F)(F)F)ccc2nn(CC3CCN(C(=O)c4ccc(-c5ccc(C(F)(F)F)cc5)cc4)CC3)cc12 [Example E138, 4-methyl-N-(2,2,2-trifluoroethyl)-2-[(1-{[4′-(trifluoromethyl)biphenyl-4-yl]carbonyl}-piperidin-4-yl)methyl]-2H-indazole-5-carboxamide] | < 7.30
15 | COc1ccc(-c2ccc(C(=O)N3CCC(Cn4cc5c(C)c(C(=O)NCC(F)(F)F)ccc5n4)CC3)cc2)c(C)c1 [Example E141, 2-({1-[(4′-methoxy-2′-methylbiphenyl-4-yl)carbonyl]piperidin-4-yl}methyl)-4-methyl-N-(2,2,2-trifluoroethyl)-2H-indazole-5-carboxamide] | < 7.30
16 | COc1cc(F)ccc1-c1ccc(C(=O)N2CCC(Cn3cc4c(C)c(C(=O)NCC(F)(F)F)ccc4n3)CC2)cc1 [Example E143, 2-({1-[(4′-fluoro-2′-methoxybiphenyl-4-yl)carbonyl]piperidin-4-yl}methyl)-4-methyl-N-(2,2,2-trifluoroethyl)-2H-indazole-5-carboxamide] | < 7.30
17 | COCCNC(=O)c1ccc2nn(CC3CCN(C(=O)c4ccc(Oc5ccc(C#N)cc5)cc4)CC3)cc2c1C [Example E153, 2-({1-[4-(4-cyanophenoxy)benzoyl]piperidin-4-yl}methyl)-N-(2-methoxyethyl)-4-methyl-2H-indazole-5-carboxamide] | < 7.30
18 | COCCNC(=O)c1ccc2nn(CC3CCN(C(=O)c4ccc(Br)c(C)c4)CC3)cc2c1C [Example E154, 2-{[1-(4-bromo-3-methylbenzoyl)piperidin-4-yl]methyl}-N-(2-methoxyethyl)-4-methyl-2H-indazole-5-carboxamide] | < 7.30
19 | COCCNC(=O)c1ccc2nn(CC3CCN(C(=O)c4ccc(C(C)(C)C)cc4)CC3)cc2c1C [Example E155, 2-{[1-(4-tert-butylbenzoyl)piperidin-4-yl]methyl}-N-(2-methoxyethyl)-4-methyl-2H-indazole-5-carboxamide] | < 7.30
20 | COCCNC(=O)c1ccc2nn(CC3CCN(C(=O)c4ccc(C5CCCCC5)cc4)CC3)cc2c1C [Example E157, 2-{[1-(4-cyclohexylbenzoyl)piperidin-4-yl]methyl}-N-(2-methoxyethyl)-4-methyl-2H-indazole-5-carboxamide] | < 7.30
21 | COCCNC(=O)c1ccc2nn(CC3CCN(C(=O)c4ccc(Oc5cccnc5)cc4)CC3)cc2c1C [Example E160, N-(2-methoxyethyl)-4-methyl-2-({1-[4-(pyridin-3-yloxy)benzoyl]piperidin-4-yl}methyl)-2H-indazole-5-carboxamide] | < 7.30
22 | COCCNC(=O)c1ccc2nn(CC3CCN(C(=O)c4ccc(Oc5ccccn5)cc4)CC3)cc2c1C [Example E162, N-(2-methoxyethyl)-4-methyl-2-({1-[4-(pyridin-2-yloxy)benzoyl]piperidin-4-yl}methyl)-2H-indazole-5-carboxamide] | < 7.30
23 | COCCNC(=O)c1ccc2nn(CC3CCN(C(=O)c4ccc(Oc5nccc(C(F)(F)F)n5)cc4)CC3)cc2c1C [Example E163, N-(2-methoxyethyl)-4-methyl-2-{[1-(4-{[4-(trifluoromethyl)pyrimidin-2-yl]oxy}-benzoyl)piperidin-4-yl]methyl}-2H-indazole-5-carboxamide] | < 7.30
24 | COCCNC(=O)c1ccc2nn(CC3CCN(C(=O)c4ccc(Oc5ccc(C(F)(F)F)nc5)cc4)CC3)cc2c1C [Example E164, N-(2-methoxyethyl)-4-methyl-2-{[1-(4-{[6-(trifluoromethyl)pyridin-3-yl]oxy}benzoyl)-piperidin-4-yl]methyl}-2H-indazole-5-carboxamide] | < 7.30
25 | COCCNC(=O)c1ccc2nn(CC3CCN(C(=O)c4ccc(Oc5cccc(C(F)(F)F)n5)cc4)CC3)cc2c1C [Example E165, N-(2-methoxyethyl)-4-methyl-2-{[1-(4-{[6-(trifluoromethyl)pyridin-2-yl]oxy}benzoyl)-piperidin-4-yl]methyl}-2H-indazole-5-carboxamide] | < 7.30
26 | COCCNC(=O)c1ccc2nn(CC3CCN(C(=O)c4ccc(-c5ccc(OC)cc5)cc4)CC3)cc2c1C [Example E166, 2-({1-[(4′-methoxybiphenyl-4-yl)carbonyl]piperidin-4-yl}methyl)-N-(2-methoxyethyl)-4-methyl-2H-indazole-5-carboxamide] | < 7.30
27 | COCCNC(=O)c1ccc2nn(CC3CCN(C(=O)c4ccc(Oc5cccc(C(F)(F)F)c5)cc4)CC3)cc2c1C [Example E168, N-(2-methoxyethyl)-4-methyl-2-[(1-{4-[3-(trifluoromethyl)phenoxy]benzoyl}piperidin-4-yl)methyl]-2H-indazole-5-carboxamide] | < 7.30
28 | COCCNC(=O)c1ccc2nn(CC3CCN(C(=O)c4ccc(Oc5ccc(Cl)cn5)cc4)CC3)cc2c1C [Example E170, 2-[(1-{4-[(5-chloropyridin-2-yl)oxy]benzoyl}piperidin-4-yl)methyl]-N-(2-methoxy-ethyl)-4-methyl-2H-indazole-5-carboxamide] | < 7.30
29 | COCCNC(=O)c1ccc2nn(CC3CCN(C(=O)c4ccc(Oc5ccc(F)cc5F)cc4)CC3)cc2c1C [Example E171, 2-({1-[4-(2,4-difluorophenoxy)benzoyl]piperidin-4-yl}methyl)-N-(2-methoxyethyl)-4-methyl-2H-indazole-5-carboxamide] | < 7.30
